{"source": "patent US20230346745A1", "about": "“AGENT FOR PREVENTING OR TREATING TAUOPATHY” (FUJIFILM Toyama Chemical Co., Ltd., priority 2017, published 2023)", "assay_type_in_all_cases": "in vivo, human", "key": {"[1]": {"system": "p-Tau/total-Tau", "assay": "Phase II placebo-controlled trial: ratio p-Tau/total-Tau in cerebrospinal fluid", "conditions": "CSF, AD patients; for p-Tau/total-Tau change at week 52 from baseline, difference from placebo group / p-Tau/total-Tau change at week 52 from baseline, least square means (standard error): First total-Tau measurement (Table 2); for p-Tau/total-Tau (remeasured total-Tau) change at week 52 from baseline, difference from placebo group / p-Tau/total-Tau (remeasured total-Tau) change at week 52 from baseline, least square means (standard error): Total-Tau concentration remeasured (Table 3)", "description": "(§1) Test Example 1 Multicenter randomized double-blind phase II placebo-controlled trial for assessing effectiveness and safety of Compound A in mild to moderate AD patients Subject (selection criteria): Patients were screened in a period from 42 days before treatment assignment to the assignment based on the following selection criteria. • Patients who were probable AD and are 55 years old or older and 85 years old or younger at the time of obtaining consent of screening. • Patients with an MMSE score of 12 to 22 at the time of screening • Patients with a Modified Hachinski Ischemia Scale score of 4 or less • Patients who have been treated with a donepezil hydrochloride or rivastigmine transdermal system for at least 4 months before the baseline and with a stable dose thereof for 3 months before the baseline. • In the case of patients who have received memantine in addition to being treated with a donepezil hydrochloride or rivastigmine transdermal system, patients who have been treated with memantine for at least 4 months before the baseline and with a stable dose thereof for 3 months before the baseline. • Patients whose brain MRI or CT results match AD at the time of screening Organization of groups: Patients matched (484 patients) were randomly divided into the following 3 groups and the trial was started. (1) High dose group: 224 mg of a test compound (160 mg in terms of Compound A) was orally administered once a day for 4 weeks and then 448 mg of a test compound (320 mg in terms of Compound A) was orally administered once a day for 48 weeks (158 patients) (2) Low dose group: 224 mg of a test compound (160 mg in terms of Compound A) was orally administered once a day for 52 weeks (166 patients) (3) Placebo group: placebo was orally administered once a day for 52 weeks (158 patients) Method of assessment: Cerebrospinal fluid biomarker\n(§2) Cerebrospinal fluid was collected by lumber puncture from subjects at baseline (within 2 weeks before the first day of administration of investigational drug) and after 52 weeks (within 2 weeks before week 52), and divided into 9-ml aliquots in polyethylene tubes and stored at -80° C. The total tau protein concentration (total-Tau) in the cerebrospinal fluid was measured by an ECL method. The phosphorylated tau protein concentration (p-Tau) was measured by ELISA method. The Aβ-42 value in the cerebrospinal fluid was measured by sandwich ELIZA which has been designed for measurement of AP including 1 amino acid and 42 amino acids.\n(§3) The total-Tau concentration was measured twice using the same cerebrospinal fluid sample.\n(§4) Change in cerebrospinal fluid (CSF) biomarkers at week 52 from the baseline was compared by analysis of covariance between a high dose group and a placebo group, and between a low dose group and the placebo group. For models, the baseline of cerebrospinal fluid (CSF) biomarkers was included as a covariate and the significance level was 5%."}, "[2]": {"system": "phosphorylated tau protein (p-Tau)", "assay": "Phase II placebo-controlled trial: cerebrospinal fluid biomarker p-Tau (ELISA)", "conditions": "for p-Tau change at week 52 from baseline, difference from placebo group / p-Tau change at week 52 from baseline, least square means (standard error): CSF", "description": "as §1, §2, §4"}, "[3]": {"system": "Aβ-42", "assay": "Phase II placebo-controlled trial: cerebrospinal fluid biomarker Aβ-42 (sandwich ELISA)", "conditions": "CSF, mild to moderate AD patients", "description": "as §1, §2\n(§5) Change in cerebrospinal fluid (CSF) biomarkers at week 52 from the baseline was compared by analysis of covariance between a high dose group and a placebo group, and between a low dose group and the placebo group. […]"}, "[4]": {"system": "Aβ-38", "assay": "Phase II placebo-controlled trial: cerebrospinal fluid biomarker Aβ-38", "conditions": "CSF, mild to moderate AD patients", "description": "as §1, §2, §5"}, "[5]": {"system": "Aβ", "assay": "Phase II placebo-controlled trial: concentration of Aβ in cerebrospinal fluid (overall statement)", "conditions": "Compound A group compared to the placebo group; mild to moderate AD patients", "description": "as §1, with “(1) High dose group: 224 mg of a test compound (160 mg in terms of Compound A) was orally administered once a day for 4 weeks and then 448 mg of a test compound (320 mg in terms of Compound A) was orally administered once a day for 48 weeks (158 patients) (2) Low dose group: 224 mg of a test compound (160 mg in terms of Compound A) was orally administered once a day for 52 weeks (166 patients) (3) Placebo group: placebo was orally administered once a day for 52 weeks (158 patients) Method of assessment: Cerebrospinal fluid biomarker” left out"}, "[6]": {"system": "Aβ-40", "assay": "Phase II placebo-controlled trial: cerebrospinal fluid biomarker Aβ-40", "conditions": "CSF, mild to moderate AD patients", "description": "as §1, §2, §5"}, "[7]": {"system": "total tau protein (total-Tau)", "assay": "Phase II placebo-controlled trial: cerebrospinal fluid biomarker total-Tau (ECL method, measured twice)", "conditions": "CSF, AD patients; for total-Tau change at week 52 from baseline, difference from placebo group / total-Tau change at week 52 from baseline, least square means (standard error): First measurement (Table 2); for total-Tau (remeasured) change at week 52 from baseline, difference from placebo group / total-Tau (remeasured) change at week 52 from baseline, least square means (standard error): Total-Tau concentration remeasured (Table 3)", "description": "as §1, §2, §3, §4"}, "[8]": {"conditions": "High dose group: 160 mg 4 weeks then 320 mg 48 weeks in terms of Compound A, oral once a day"}, "[9]": {"conditions": "Low dose group: 160 mg in terms of Compound A, oral once a day 52 weeks"}, "[10]": {"conditions": "High dose group: 160 mg 4 weeks then 320 mg 48 weeks in terms of Compound A, oral once a day, mild to moderate AD patients"}, "[11]": {"conditions": "Low dose group: 160 mg in terms of Compound A, oral once a day 52 weeks, mild to moderate AD patients"}}, "data": [{"compound": "OC1CN(CCCOCCc2ccc3sccc3c2)C1", "note": "[Compound A, 1-(3-(2-(1-benzothiophen-5-yl)ethoxy)propyl)azetidin-3-ol]", "values": [{"measurement": "p-Tau/total-Tau change at week 52 from baseline, difference from placebo group", "setting": "[1]; [8]", "result": "−11.11", "unit": "%"}, {"measurement": "p-Tau/total-Tau change at week 52 from baseline, least square means (standard error)", "setting": "[1]; [8]", "result": "−4.47(3.21) %"}, {"measurement": "p-Tau/total-Tau change at week 52 from baseline, difference from placebo group", "setting": "[1]; [9]", "result": "−4.60", "unit": "%"}, {"measurement": "p-Tau/total-Tau change at week 52 from baseline, least square means (standard error)", "setting": "[1]; [9]", "result": "2.04(4.33) %"}, {"measurement": "p-Tau/total-Tau (remeasured total-Tau) change at week 52 from baseline, difference from placebo group", "setting": "[1]; [8]", "result": 0.26, "unit": "%"}, {"measurement": "p-Tau/total-Tau (remeasured total-Tau) change at week 52 from baseline, least square means (standard error)", "setting": "[1]; [8]", "result": "0.04(0.17) %"}, {"measurement": "p-Tau/total-Tau (remeasured total-Tau) change at week 52 from baseline, difference from placebo group", "setting": "[1]; [9]", "result": 0.03, "unit": "%"}, {"measurement": "p-Tau/total-Tau (remeasured total-Tau) change at week 52 from baseline, least square means (standard error)", "setting": "[1]; [9]", "result": "−0.20(0.20) %"}, {"measurement": "change in the concentration of p-Tau in the cerebrospinal fluid at week 52 from the baseline", "setting": "[2]; Compound A group compared to the placebo group, mild to moderate AD patients", "result": "consistently tended to be decreased in a dose-dependent manner"}, {"measurement": "change in the concentration of p-Tau in the cerebrospinal fluid at week 52 from the baseline, statistical comparison", "setting": "[2]; Compound A high dose group versus placebo group, analysis of covariance, significance level 5%", "result": "statistically significant difference"}, {"measurement": "p-Tau change at week 52 from baseline, difference from placebo group", "setting": "[2]; [10]", "result": -7.59, "unit": "pg/mL"}, {"measurement": "p-Tau change at week 52 from baseline, least square means (standard error)", "setting": "[2]; [10]", "result": "−7.30(2.281) pg/mL"}, {"measurement": "p-Tau change at week 52 from baseline, difference from placebo group", "setting": "[2]; [11]", "result": -4.23, "unit": "pg/mL"}, {"measurement": "p-Tau change at week 52 from baseline, least square means (standard error)", "setting": "[2]; [11]", "result": "−3.94(2.715) pg/mL"}, {"measurement": "Aβ-42 change at week 52 from baseline, difference from placebo group", "setting": "[3]; [8]", "result": 32.90, "unit": "pg/mL"}, {"measurement": "Aβ-42 change at week 52 from baseline, least square means (standard error)", "setting": "[3]; [8]", "result": "11.55(25.578) pg/mL"}, {"measurement": "Aβ-42 change at week 52 from baseline, difference from placebo group", "setting": "[3]; [9]", "result": 11.65, "unit": "pg/mL"}, {"measurement": "Aβ-42 change at week 52 from baseline, least square means (standard error)", "setting": "[3]; [9]", "result": "−9.70(30.362) pg/mL"}, {"measurement": "Aβ-38 change at week 52 from baseline, difference from placebo group", "setting": "[4]; [8]", "result": 525.66, "unit": "pg/mL"}, {"measurement": "Aβ-38 change at week 52 from baseline, least square means (standard error)", "setting": "[4]; [8]", "result": "178.64(221.978) pg/mL"}, {"measurement": "Aβ-38 change at week 52 from baseline, difference from placebo group", "setting": "[4]; [9]", "result": 127.43, "unit": "pg/mL"}, {"measurement": "Aβ-38 change at week 52 from baseline, least square means (standard error)", "setting": "[4]; [9]", "result": "−219.58(266.774) pg/mL"}, {"measurement": "change in the concentration of AP in the cerebrospinal fluid at week 52 from the baseline", "setting": "[5]", "result": "tended to be increased in a dose dependent manner"}, {"measurement": "Aβ-40 change at week 52 from baseline, difference from placebo group", "setting": "[6]; [8]", "result": 1206.87, "unit": "pg/mL"}, {"measurement": "Aβ-40 change at week 52 from baseline, least square means (standard error)", "setting": "[6]; [8]", "result": "290.84(466.956) pg/mL"}, {"measurement": "Aβ-40 change at week 52 from baseline, difference from placebo group", "setting": "[6]; [9]", "result": 75.71, "unit": "pg/mL"}, {"measurement": "Aβ-40 change at week 52 from baseline, least square means (standard error)", "setting": "[6]; [9]", "result": "−840.32(559.467) pg/mL"}, {"measurement": "total-Tau change at week 52 from baseline, difference from placebo group", "setting": "[7]; [8]", "result": 81.94, "unit": "pg/mL"}, {"measurement": "total-Tau change at week 52 from baseline, least square means (standard error)", "setting": "[7]; [8]", "result": "11.38(47.304) pg/mL"}, {"measurement": "total-Tau change at week 52 from baseline, difference from placebo group", "setting": "[7]; [9]", "result": 28.19, "unit": "pg/mL"}, {"measurement": "total-Tau change at week 52 from baseline, least square means (standard error)", "setting": "[7]; [9]", "result": "−42.36(63.947) pg/mL"}, {"measurement": "total-Tau (remeasured) change at week 52 from baseline, difference from placebo group", "setting": "[7]; [8]", "result": -129.57, "unit": "pg/mL"}, {"measurement": "total-Tau (remeasured) change at week 52 from baseline, least square means (standard error)", "setting": "[7]; [8]", "result": "−101.35 (32.552) pg/mL"}, {"measurement": "total-Tau (remeasured) change at week 52 from baseline, difference from placebo group", "setting": "[7]; [9]", "result": -36.10, "unit": "pg/mL"}, {"measurement": "total-Tau (remeasured) change at week 52 from baseline, least square means (standard error)", "setting": "[7]; [9]", "result": "−7.88 (38.632) pg/mL"}]}]}
